{"source": "paper PMC4131466", "about": "“Antidepressant Fluoxetine Modulates the In Vitro Inhibitory Activity of Buffalo Brain Cystatin: A Thermodynamic Study Using UV and Fluorescence Techniques” (Biotechnology Research International, 2014)", "biological_target": "T1, buffalo brain cystatin (BC)", "T1 construct": "gene CST3", "assay": "intrinsic fluorescence quenching, log-log plot", "format": "binding, Bubalus bubalis", "details": "1 μM BC, 50 mM sodium phosphate pH 7.5, 298 K, 30 min incubation, excitation 280 nm; n = 0.79", "text": "intrinsic fluorescence quenching, log-log plot on buffalo brain cystatin (BC)"}
{"smiles": "CNCCC(Oc1ccc(C(F)(F)F)cc1)c1ccccc1", "note": "(stereo not shown) [Fluoxetine]", "values": [{"measurement": "K (binding constant) mol^-1", "result": "5.0317e+06", "unit": "mol⁻¹"}]}
